EC50 data for three compounds are collected here from patent US20220081433A1, “CYCLIC SULFAMIDE COMPOUNDS FOR TREATMENT OF HBV” (Assembly Biosciences, Inc., priority 2018, published 2022).

Some results are limits rather than exact numbers.

In the experiment the test system is HBV. Put plainly: Activity of test compounds on viral production from HepAD38 cells (viral load by qPCR of HBV core sequence). The following applies: Hepatitis B virus, 120 h, 5 days, supernatant HBV DNA by qPCR vs DMSO control, read-out: viral load lowering EC50 (Activity). Format: cell-based. Here is the method: Assay Measuring Activity of Test Compounds on Viral Production from HepAD38 Cells
HepAD38 cells grown in a T-150 flask (Corning, cat#: 430825) with Growth Medium (DMEM/F12 (1:1) (Hyclone, cat#: SH30023.02), 1× Pen/Strep (Invitrogen, cat#: 15140-122), 10% FBS (Tissue Culture Biologics, cat#: 101), 250 μg/mL G418 (Alfa Aesar, cat#: J62671), 1 μg/mL Tetracycline (Teknova, cat#: T3320)) were detached with 0.25% trypsin-EDTA (Invitrogen, cat#: 25200-056). Tetracycline-free treatment medium (15 mL DMEM/F12 (1:1) 1×Pen/step, with 2% FBS, Tet-system approved (Clontech, cat#: 631106) were then added to mix, transferred into a 50 ml conical tube (Falcon, cat#: 21008-918) and spun at 1300 rpm for 5 min. Pelleted cells were then re-suspended/washed with 50 mL of 1×DPBS (Invitrogen, cat#: 14190-136) 2 times and 50 mL treatment medium twice. HepAD38 cells were then re-suspended with 10 mL of treatment medium, syringed and counted. Wells of 96-well clear bottom TC plate (Corning, cat#: 3904) were seeded at 50,000 cells/well in 180 μL of treatment medium, and 20 μL of either 10% DMSO (Sigma, cat#: D4540) as controls or a 10× solution of test compounds in 10% DMSO in treatment media was added for a final compound concentration starting at 10 μM, and plates were incubated in 5% CO2 incubator at 37° C. for 5 days.
Subsequently viral load production was assayed by quantitative PCR (qPCR) of the HBV core sequence. PCR reaction mixture containing forward primers HBV-f 5′-CTGTGCCTTGGGTGGCTTT-3′ (IDT DNA), Reverse primers HBV-r 5′-[…]-3′ (IDT DNA), Fluorescent TaqMan™ Probes HBV-probe 5′-FAM/AGCTCCAAA/ZEN/[…]/3IABkFQ-3′ (IDT DNA), 10 μL/well of PerfeCTa® qPCR ToughMix® (Quanta Biosciences, Cat#: 95114-05K), and 6 μL/well of DEPC water (Alfa Aesar, cat#: J62087) was prepared. Four μL of supernatant was added to 16 μL of the reaction mixture in a qPCR plate (Applied Biosytems, Cat#: 4309849), sealed with a film (Applied Biosystems, Cat#: 4311971), centrifuged for a few seconds, and subsequently run on an Applied Biosystems VIIA7. The PCR mixture was incubated at 45° C. for 5 min, then 95° C. for 10 min, followed by 40 cycles of 10 seconds at 95° C. and 20 seconds at 60° C. Viral load was quantified against known HBV DNA standards by using ViiA™ 7 Software. Viral load in the supernatant from wells with treated cells were compared against viral load in supernatant from DMSO control wells (≥ 3 per plate). Cell viability assay was performed with CellTiter-Glo Luminescent Cell Viability Assay (Promega, cat#: G7573) with modification. Mixed appropriate amount of CellTiter-Glo (CTG) 1×DPBS in a 1:1 ratio, added 100 uL of the mixture to each well followed completely removal of all supernatant in each well without touching cell surface. Incubated the plate at room temperature for 10 min on an orbital shaker, and then read the plate with a plate reader (TECAN M1000 or Envision). EC50 or CC50 values were calculated through curve-fitting of the four-parameter nonlinear-logistic-regression model (GraphPad Prism or Dotmatics). CC50 values were all >10 μM.
Background: In qPCR the cycle at which signal appears reflects the starting amount.

The term EC50 denotes the concentration needed to bring the measured effect to its halfway point. As for `CN1C(C(=O)Nc2ccc(F)c(Cl)c2)CC(c2cccc(-c3ccc(C(F)(F)F)cc3)c2)NS1(=O)=O` (stereo not drawn) [Example 21, N-(3-Chloro-4-fluorophenyl)-2-methyl-5-(4′-(trifluoromethyl)-[1,1′-biphenyl]-3-yl)-1,2,6-thiadiazinane-3-carboxamide 1,1-dioxide], the EC50 was under 1000 nM.

As for `CN1[C@@H](C(=O)Nc2ccc(F)c(Cl)c2)C[C@@H](c2cccc(-c3ccccc3)c2)NS1(=O)=O` (single isomer, unassigned) [2-Isomer II], the EC50 fell in the range of 5000 to 10000 nM.

With `CN1C(C(=O)Nc2ccc(F)c(Cl)c2)CC(c2ccc(-c3cn(C)cn3)o2)NS1(=O)=O` (stereo not drawn) [Example 36, N-(3-Chloro-4-fluorophenyl)-2-methyl-5-(5-(1-methyl-1H-imidazol-4-yl)furan-2-yl)-1,2,6-thiadiazinane-3-carboxamide 1,1-dioxide], the EC50 is under 1000 nM.
